# How the values were obtained:
# Assay in all cases: relative viability (nuclei count vs DMSO), 5 days (fraction); higher = more cells survive
# [1] = tested on: PC-3 [JPC-3]
# In short: (§1)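 Values are medians from duplicate plates. Each reflects relative viability, defined as the nuclei count of treated wells over that of vehicle wells. Lung cancer cell lines in 1536-well plates were pin-tool dosed one day after seeding with one drug alone or with a fixed anchor-drug dose plus five library-drug doses (not always all listed) in √10 steps, then fixed, stained and imaged at 4× after 5 days.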
# [2] = tested on: HCC-827
# In short: as §1
# [3] = tested on: LU99A
# In short: as §1
# [4] = tested on: NCI-H2126
# In short: as §1
# [5] = tested on: BEN
# In short: as §1
# [6] = tested on: HCC-366
# In short: as §1
# [7] = tested on: HCC-15
# In short: as §1
# [8] = tested on: NCI-H1993
# In short: as §1
# [9] = tested on: LCLC-97TM1
# In short: as §1
# [10] = tested on: NCI-H2087
# In short: as §1
# [11] = tested on: NCI-H727
# In short: as §1
# [12] = tested on: NCI-H2170
# In short: as §1
# [13] = tested on: LXF-289
# In short: as §1
# [14] = tested on: HARA
# In short: as §1
# [15] = tested on: LC-2-ad
# In short: as §1
# [16] = tested on: CAL-12T
# In short: as §1
# [17] = tested on: PC-14
# In short: as §1
# [18] = tested on: HOP-62
# In short: as §1
# [19] = tested on: HCC-44
# In short: as §1
smiles,measurement,setting,value
O=C(O)CCCCC(CCSCc1ccccc1)SCc1ccccc1 (centres undefined) [CPI-613] + NC(=O)Nc1cc(-c2cccc(F)c2)sc1C(=O)N[C@H]1CCCNC1 [AZD7762] (partner 0.2 µM),relative viability,[1]; first compound 5 µM,0.777
same,relative viability,[1]; first compound 50 µM,0.909
same,relative viability,[1]; first compound 158.11 µM,0.464
same,relative viability,[1]; first compound 500 µM,0.114
same,relative viability,[2]; first compound 5 µM,0.217
same,relative viability,[2]; first compound 15.81 µM,0.181
same,relative viability,[2]; first compound 50 µM,0.201
same,relative viability,[2]; first compound 158.11 µM,0.179
same,relative viability,[2]; first compound 500 µM,0.127
same,relative viability,[3]; first compound 5 µM,0.338
same,relative viability,[3]; first compound 15.81 µM,0.326
same,relative viability,[3]; first compound 50 µM,0.322
same,relative viability,[3]; first compound 158.11 µM,0.335
same,relative viability,[3]; first compound 500 µM,0.0775
same,relative viability,[4]; first compound 5 µM,0.935
same,relative viability,[4]; first compound 15.81 µM,0.966
same,relative viability,[4]; first compound 50 µM,0.991
same,relative viability,[4]; first compound 158.11 µM,0.348
same,relative viability,[4]; first compound 500 µM,0.788
same,relative viability,[5]; first compound 5 µM,0.653
same,relative viability,[5]; first compound 15.81 µM,0.485
same,relative viability,[5]; first compound 50 µM,0.697
same,relative viability,[5]; first compound 158.11 µM,0.672
same,relative viability,[5]; first compound 500 µM,0.526
same,relative viability,[6]; first compound 5 µM,0.256
same,relative viability,[6]; first compound 15.81 µM,0.203
same,relative viability,[6]; first compound 50 µM,0.282
same,relative viability,[6]; first compound 158.11 µM,0.138
same,relative viability,[6]; first compound 500 µM,0.0061
same,relative viability,[7]; first compound 5 µM,1.21
same,relative viability,[7]; first compound 15.81 µM,1.04
same,relative viability,[7]; first compound 50 µM,1.14
same,relative viability,[7]; first compound 158.11 µM,0.819
same,relative viability,[7]; first compound 500 µM,0.476
same,relative viability,[8]; first compound 5 µM,0.743
same,relative viability,[8]; first compound 15.81 µM,0.688
same,relative viability,[8]; first compound 50 µM,0.65
same,relative viability,[8]; first compound 158.11 µM,0.537
same,relative viability,[8]; first compound 500 µM,0.286
same,relative viability,[9]; first compound 5 µM,0.293
same,relative viability,[9]; first compound 15.81 µM,0.225
same,relative viability,[9]; first compound 50 µM,0.229
same,relative viability,[9]; first compound 158.11 µM,0.125
same,relative viability,[9]; first compound 500 µM,0.0538
same,relative viability,[10]; first compound 5 µM,1.4
same,relative viability,[10]; first compound 15.81 µM,0.87
same,relative viability,[10]; first compound 50 µM,1.16
same,relative viability,[10]; first compound 158.11 µM,0.446
same,relative viability,[10]; first compound 500 µM,0.01
same,relative viability,[11]; first compound 5 µM,0.617
same,relative viability,[11]; first compound 15.81 µM,0.547
same,relative viability,[11]; first compound 50 µM,0.669
same,relative viability,[11]; first compound 158.11 µM,0.555
same,relative viability,[11]; first compound 500 µM,0.561
same,relative viability,[12]; first compound 5 µM,0.878
same,relative viability,[12]; first compound 15.81 µM,0.826
same,relative viability,[12]; first compound 50 µM,0.865
same,relative viability,[12]; first compound 158.11 µM,0.607
same,relative viability,[12]; first compound 500 µM,0.231
same,relative viability,[13]; first compound 5 µM,1
same,relative viability,[13]; first compound 15.81 µM,1
same,relative viability,[13]; first compound 50 µM,1.03
same,relative viability,[13]; first compound 158.11 µM,0.722
same,relative viability,[13]; first compound 500 µM,0.774
same,relative viability,[14]; first compound 5 µM,0.37
same,relative viability,[14]; first compound 15.81 µM,0.0178
same,relative viability,[14]; first compound 50 µM,0.302
same,relative viability,[14]; first compound 158.11 µM,0.204
same,relative viability,[14]; first compound 500 µM,0.041
same,relative viability,[15]; first compound 5 µM,0.771
same,relative viability,[15]; first compound 15.81 µM,0.813
same,relative viability,[15]; first compound 50 µM,0.825
same,relative viability,[15]; first compound 158.11 µM,0.283
same,relative viability,[15]; first compound 500 µM,0.01
same,relative viability,[16]; first compound 5 µM,0.624
same,relative viability,[16]; first compound 15.81 µM,0.457
same,relative viability,[16]; first compound 50 µM,0.509
same,relative viability,[16]; first compound 158.11 µM,0.541
same,relative viability,[16]; first compound 500 µM,0.469
same,relative viability,[17]; first compound 5 µM,0.349
same,relative viability,[17]; first compound 15.81 µM,0.252
same,relative viability,[17]; first compound 50 µM,0.296
same,relative viability,[17]; first compound 158.11 µM,0.256
same,relative viability,[17]; first compound 500 µM,0.16
same,relative viability,[18]; first compound 5 µM,0.703
same,relative viability,[18]; first compound 15.81 µM,0.398
same,relative viability,[18]; first compound 50 µM,0.649
same,relative viability,[18]; first compound 158.11 µM,0.235
same,relative viability,[18]; first compound 500 µM,0.216
same,relative viability,[19]; first compound 5 µM,1.03
same,relative viability,[19]; first compound 15.81 µM,0.966
same,relative viability,[19]; first compound 50 µM,1.01
same,relative viability,[19]; first compound 158.11 µM,0.967
same,relative viability,[19]; first compound 500 µM,0.66
